Legend:
[1] = target: T1, NEP (Rattus norvegicus, UniProt P07861); test: Met-enkephalin hydrolysis by rat spinal cord slices and membrane preparations, RP-HPLC analysis; assay type: biochemical; conditions: for inhibition of enkephalinase activity over the time of incubation: 37° C., from 10 to 30 min, 10 μM Phosphoramidon, 1 μM Thiorphan
T1 construct: incubations of membrane and fresh tissue slice preparations from nervous tissues; from tissue; host or cells: rat spinal cord (dorsal zone), fresh slices or 100 000 x g membrane fraction
T1 sequence (P07861 1-750): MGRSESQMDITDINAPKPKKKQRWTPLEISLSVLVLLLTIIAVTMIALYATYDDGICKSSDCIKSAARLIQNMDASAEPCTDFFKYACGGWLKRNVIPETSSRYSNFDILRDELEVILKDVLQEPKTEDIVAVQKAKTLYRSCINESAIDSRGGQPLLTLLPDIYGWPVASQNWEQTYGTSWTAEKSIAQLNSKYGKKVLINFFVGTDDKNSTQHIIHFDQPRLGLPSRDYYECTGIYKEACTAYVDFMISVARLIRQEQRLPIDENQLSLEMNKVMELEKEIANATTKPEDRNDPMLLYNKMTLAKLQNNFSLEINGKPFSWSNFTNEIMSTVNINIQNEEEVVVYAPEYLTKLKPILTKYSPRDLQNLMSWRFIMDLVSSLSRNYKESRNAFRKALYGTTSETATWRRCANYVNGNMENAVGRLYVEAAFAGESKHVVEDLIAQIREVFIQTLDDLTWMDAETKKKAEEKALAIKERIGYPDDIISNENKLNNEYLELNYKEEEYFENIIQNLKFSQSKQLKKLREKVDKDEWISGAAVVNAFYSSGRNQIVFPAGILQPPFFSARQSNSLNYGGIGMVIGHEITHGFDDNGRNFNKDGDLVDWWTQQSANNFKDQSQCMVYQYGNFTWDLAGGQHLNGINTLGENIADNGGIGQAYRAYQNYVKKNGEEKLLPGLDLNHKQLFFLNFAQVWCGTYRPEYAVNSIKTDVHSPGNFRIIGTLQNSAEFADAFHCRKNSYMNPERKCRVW
Procedure: The organs are rapidly removed, dissected on ice, freed of nerve fibers and of adipose tissues and then washed in cold oxygenated glucose-and bicarbonate-containing Krebs Ringer (KRBG) solution, whose composition is the following: 120 mM NaCl-5 mM KCl-1.2 mM KH2PO4-27.5 mM NaHCO3-2.6 mM CaCl2-0.67 mM MgSO4-5.9 mM glucose. The slices of tissues are prepared either manually with the aid of a scalpel (1-2 mm thick), or mechanically with the aid of a “Tissue Chopper” (1 mm thick). Slices are then dispersed into reaction tubes where they are subjected to three successive washes in ice-cold oxygenated KRBG. […] The organs dissected out and washed in ice-cold KRBG are homogenized at 4° C. in 10 volumes (vol./wt.) of 50 mM Tris/HCl buffered at pH 7.2, using a Teflon-glass homogenizer (3×5 sec.). A first centrifugation of 5 min. at 1000×g and 4° C. makes it possible to remove the tissular debris and the nuclei in the pellet. A second centrifugation of the supernatant at 100 000×g and 5° C. concentrates the membrane fraction into the pellet, which will be superficially washed three times with cold Tris/HCl buffer and resuspended in fresh buffer using a Kontes homogenizer, aliquoted and stored at -80° C. while waiting to be used as enzyme source, at least until three months. For the experiments of analysis of the NEP peptidase activity, an ex vivo model using incubations of membrane and fresh tissue slice preparations from nervous tissues that are known to be appropriate for exploring NEP peptidase activity: i.e. the dorsal zone of rat spinal cord, was first developed. The metabolism rate of the NEP-sensitive peptides was measured using the both NEP substrates involved in the signaling of the nociceptive response: the neuropeptides Met-enkephalin and Substance P. […] (NEN, 12.5-25 nM) were used. The objective was to measure the NEP-specific endoproteolysis of these substrates. […] Furthermore, for studying the functional role of […] NO: 1), the reaction was carried out in the presence of the SMR1-peptide alone or combined with specific inhibitors of membrane peptidases which could inactivate the […] NO: 1) peptide by cleaving its C-terminal end: an inhibitor of carboxypeptidase […], 10 μM, Sigma) and an inhibitor of dipeptidylpeptidase IV (DPPIV inhibitor, 10 μM, Roche). […] Samples are kept at -30° C. until the measurement of their intact substrate and its metabolites content. The membrane preparations are preincubated in 50 mM Tris/HCl buffered at pH 7.2 and containing 10 μM Bestatin, at 25, 30 or 37° C. in constantly shaken water, in the presence or in the absence of NEP inhibitor. […] Samples are kept at -30° C. until the measurement of their intact substrate and its metabolites content. HPLC is a highly resolutive procedure that allows one to isolate, and detect by coupled spectrophotometer analysis, the non-radioactive peptides whose concentration is at least 1 to 10 μM. The C-18 RP-HPLC is based on the same principle as the C-18 Sep-Pak cartridge. The chromatographic analyses were used to study the hydrolysis of Met-Enkephalin, that were done on a C-18 LUNA analytical column (150×4.6 mm inner diameter, AIT) packed with 5 μm-diameter beads. […] Their identification and relative quantification (peak height) are checked by continuously monitoring the UV absorbance at 254 nm of column outflow. In first series of experiment, the slices and the membrane preparations of spinal cord tissues were incubated at 30° C. in a 1 ml final volume of KRBG, and at 37° C. in a 0.25 ml final volume of Tris/HCl 50 mM, pH 7.2, respectively.

[2] = target: T1, NEP; test: 3H-Substance P hydrolysis by rat spinal cord slices; assay type: biochemical; conditions: 25° C., over 30 min incubation, read-out: inhibition of Substance P degradation
Procedure: (§1) For the experiments of analysis of the NEP peptidase activity, an ex vivo model using incubations of membrane and fresh tissue slice preparations from nervous tissues that are known to be appropriate for exploring NEP peptidase activity: i.e. the dorsal zone of rat spinal cord, was first developed. […] (NEN, 12.5-25 nM) were used.
(§2) The objective was to measure the NEP-specific endoproteolysis of these substrates.
The C-18 Sep-Pak cartridges (Waters) were used to analyze the hydrolysis of the radiolabeled peptides: they separate compounds according to their differences in polarity. This solid-phase extraction procedure allows isolating the substrate from its metabolites, since the hydrophobic character of the peptide metabolites is reduced or even lost compared to the intact peptide substrate.
The radioactivity of eluted and isolated compounds is determined by liquid scintillation spectrometry.

[3] = target: T1, NEP; test: Met-enkephalin degradation by rat spinal cord slices, RIA assay; assay type: biochemical; conditions: 10 μM; fresh spinal cord slices; 20 min at 25° C.; 10 μM Met-enkephalin
Procedure: as §1, §2

[4] = test system: male Wistar/AF EOPS rats; test: Behavioral despair test (forced swimming); assay type: in vivo, rat
Procedure: Forty male Wistar/AF EOPS rats (Iffa-Credo Breeding Centre, 69-St-Germain sur l'Arbresle, France), weighing 300 to 320 g, were used. On arrival, the rats were labelled and distributed randomly in pairs into type F polycarbonate cages (48×27×20 cm, U.A.R., 91-Epinay-Sur-Orge, France). The animals were stabled in an air-conditioned animal house, at a temperature of 22-24° C. The rats were given food (M25 croquettes, Ets Pietrement, 77-Provins, France) and drink ad libitum and were subjected to a 12-hour light-darkness cycle.
After one week of familiarization with the laboratory conditions, the rats were weighed and distributed randomly into 3 treatment groups (n=12). The rats of the different groups will all be handled in the same way and under the same conditions.
The behavioral despair test takes place over two sessions: • a 15-minute test session; • a 5-minute retest session, performed 24 hours later.
During the test session, the rat was subjected to forced swimming in a Plexiglas cylinder (20 cm in diameter and 50 cm in height, containing 25 cm of water at 25° C.) and its behavior was recorded over 15 minutes. At the end of the test, the rat was removed from the water, dried gently, treated and then returned to its dwelling cage.
During the retest, 24 hours later, the rat was again placed in the water and its behavior was recorded over 5 minutes.
The recorded variables are the period of immobility during the first 5 minutes of both the test and the retest.
The peptide FG-005 (SMR1-QHNPR) (SEQ ID NO: 1) was suspended at a rate of 500 μg per 5 ml of 0.01N acetic acid, and then diluted with PBS to be administered at doses of 50 and 100 μg/kg via the i.v. route into the dorsal caudal vein of the rat, immediately after the test and 300 and 5 minutes before the retest the following day.
A bilateral probability paired t test was used to compare the two periods of immobility of the test with those of the retest in each of the groups. The results are expressed as an average ±standard error of mean (SEM)(FIG. 4). The statistical and graphical processing was performed using Statview5 and DeltaGraph® Pro 3.5 software.

[5] = test system: male Wistar/AF EOPS rats; test: Behavioral despair test (forced swimming); assay type: in vivo, rat; conditions: first 5 minutes, n = 10

Row | Structure (SMILES) | inhibition at 10 µM ([1]; 10 μM, membrane preparations and fresh tissue slices, 10 min incubation at 37° C., read-out: inhibition of Met-enkephalin hydrolysis (enkephalinase activity)) [%] | inhibition of Met-enkephalin degradation (RP-HPLC) ([1]; 10 μM, spinal cord slices, 20 min at 25° C., Met-enkephalin 10 μM) | inhibition of enkephalinase activity over the time of incubation [1] | inhibition at 10 µM [2] [%] | protection of Met-enkephalin from degradation (RIA) [3] [%] | change of period of immobility, retest compared with test ([4]; 8-OH-DPAT treated rats) | overall effect in the behavioral despair test ([4]; FG-005 50 and 100 μg/kg i.v., 8-OH-DPAT as reference substance) | Immobility period, Retest ([5]; 0.5 mg/kg i.p., 1440, 300, 30 min before the retest) | Immobility period, Test ([5]; 8-OH-DPAT group, 0.5 mg/kg i.p., test session before any treatment) | inhibition at 1 µM ([1]; 1 μM, membrane preparations and fresh tissue slices, 10 min incubation at 37° C., read-out: inhibition of Met-enkephalin hydrolysis (enkephalinase activity)) [%] | inhibition at 10 µM ([1]; 10 μM, spinal cord slices, 20 min at 25° C., Met-enkephalin 10 μM, read-out: inhibition of Met-enkephalin degradation (RP-HPLC)) [%]
1 | CC(C)C[C@H](NP(=O)(O)O[C@@H]1O[C@@H](C)[C@H](O)[C@@H](O)[C@H]1O)C(=O)N[C@@H](Cc1c[nH]c2ccccc12)C(=O)O [Phosphoramidon] | 80 to 90 | complete inhibition | almost complete inhibition | 60 to 65 | 96 |  |  |  |  |  | 
2 | CCCN(CCC)C1CCc2cccc(O)c2C1 (centres unmarked) [8-OH-DPAT, reference compound] |  |  |  |  |  | significantly reduce their period of immobility | significant anti-resignation effect | 31.60 ± 11.51 | 109.20 ± 11.43 |  | 
3 | O=C(O)CNC(=O)C(CS)Cc1ccccc1 (centres unmarked) [Thiorphan] |  |  | almost complete inhibition | 60 to 65 | 100 |  |  |  |  | 80 to 90 | 80

From patent publication US7423020B2, “Treatment of mood disorders by administration of SMR1” (Institut Pasteur, priority 2001, dated 2008)
